EC50 and IC50 data for 19 molecules are collected here from US10501421B1, “Substituted benzimidazoles as modulators of Ras signaling” (VANDERBILT UNIVERSITY, priority 2017, dated 2019).

Structures can show the parent of a compound that is named as a salt. Where two headings read alike, the source gives them in different places.

Experiment [1] has as its target Ras GEF SOS (Son of Sevenless) (Homo sapiens, UniProt Q07889). The experiment in a line: SOS-mediated nucleotide exchange on Ras (BODIPY-GDP fluorescence). The class given is biochemical. Particulars: SOS-mediated exchange of BODIPY-GDP for GTP on Ras. A digest of the protocol:
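Ras loaded with BODIPY-GDP was mixed in buffer with test compound, then GTP and SOS. Fluorescence change from labeled GDP/GTP exchange was followed over time, and rates came from single-exponential fits. EC50 came from a four-parameter fit of mean rate against compound concentration.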

Experiment [2] has as its system H727 lung cancer cell lines (G12V K-Ras mutation). The experiment in a line: Inhibition of cancer cell proliferation (CellTiter-Glo). The class given is cell-based. Particulars: Homo sapiens, NCI-H727, 72 h, read-out: Cell proliferation activity (H727 cancer cell line proliferation IC50). The protocol:
Compounds of the present invention were measured for their ability to kill H727 lung cancer cell lines, which contain a G12V K-Ras mutation. Cell proliferation experiments were conducted in 96-well plates. Cells were plated at 1000 cells/well, incubated overnight, followed by treatment with a dose range of compound for 3 days at 37° C. Cell proliferation was assessed using a CellTiter-Glo assay (Promega) according to the manufacturer's protocol. Data were normalized to DMSO control. IC50 values were determined using a four-parameter dose-response (variable slope) equation. These assays are performed in a manner analogous to the assay disclosed in: Burns, M. C.; Sun, Q.; Daniels, R. N.; Camper, D. V.; Kennedy, J. P.; Phan, J.; Olejniczak, E. O.; Lee, T.; Waterson, A. G.; Rossanese, O. W.; Fesik, S. W. “Approach for targeting Ras with small molecules that activate SOS-mediated nucleotide exchange” Proc. Natl. Acad. Sci. 2014; 11(9): 3401-3406. PMCID: PMC3948241.
On the technique in general: Cellular ATP, detected with luciferase, serves as a proxy for viable cell number.

Where [3] appears, read: H727 cells, 3 days treatment, CellTiter-Glo.

Sequence of Ras GEF SOS (Son of Sevenless) (Q07889 564-1049 limits assumed): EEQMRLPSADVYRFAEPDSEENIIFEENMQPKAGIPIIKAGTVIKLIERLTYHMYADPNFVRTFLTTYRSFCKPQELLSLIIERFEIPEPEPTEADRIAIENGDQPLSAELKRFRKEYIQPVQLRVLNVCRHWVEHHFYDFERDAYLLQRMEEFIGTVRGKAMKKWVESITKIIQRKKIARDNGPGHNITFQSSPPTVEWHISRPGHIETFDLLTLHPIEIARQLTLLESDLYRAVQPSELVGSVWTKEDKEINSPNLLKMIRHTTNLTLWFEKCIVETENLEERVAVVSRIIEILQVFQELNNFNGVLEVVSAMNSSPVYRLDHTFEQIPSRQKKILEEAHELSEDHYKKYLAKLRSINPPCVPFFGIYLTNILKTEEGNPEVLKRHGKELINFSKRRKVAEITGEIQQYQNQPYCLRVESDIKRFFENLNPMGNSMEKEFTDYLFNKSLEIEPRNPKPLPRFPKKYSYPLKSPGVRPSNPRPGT
Sequence of Ras GEF SOS (Son of Sevenless) (P01112 1-166 partner limits assumed): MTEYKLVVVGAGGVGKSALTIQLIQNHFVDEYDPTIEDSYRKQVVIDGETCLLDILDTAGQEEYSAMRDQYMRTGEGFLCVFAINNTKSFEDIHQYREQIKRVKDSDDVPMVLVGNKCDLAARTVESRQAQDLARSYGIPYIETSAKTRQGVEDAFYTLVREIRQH

In general, EC50 refers to the midpoint of the concentration-response curve. In turn, `Cc1nn(C)c(C)c1-c1cccc2c1nc(N1CCNCC1)n2Cc1ccc(F)c(Cl)c1` [Example 85, 1-(3-chloro-4-fluorobenzyl)-2-(piperazin-1-yl)-4-(1,3,5-trimethyl-1H-pyrazol-4-yl)-1H-benzo[d]imidazole trifluoroacetate] registered a concentration giving a half-maximal response (EC50) in experiment [1] of 1 to 5 µM. The IC50 in experiment [2] is 5 to 20 µM.
The molecule `CC(C)c1ccccc1-c1cccc2c1nc(N1CCNCC1)n2Cc1cc(F)cc(F)c1` [Example 97, 1-(3,5-difluorobenzyl)-4-(2-isopropylphenyl)-2-(piperazin-1-yl)-1H-benzo[d]imidazole] gave an EC50 in experiment [1] of 1 to 5 µM. Moreover, the IC50 in experiment [2] (setting [3]) was < 1 µM.
Taken in the same sequence, the figures for `Cc1cc(Cn2c(NCCN)nc3c(Cl)nccc32)ccc1F` [Example 223, N^1-(4-chloro-1-(4-fluoro-3-methylbenzyl)-1H-imidazo[4,5-c]pyridin-2-yl)ethane-1,2-diamine] were 5 to 30 µM and > 20 µM.
In experiment [1], `Cc1ccccc1-c1cccc2c1nc(N1CCNCC1)n2Cc1ccc(F)c(Cl)c1` [Example 79, 1-(3-chloro-4-fluorobenzyl)-2-(piperazin-1-yl)-4-(o-tolyl)-1H-benzo[d]imidazole trifluoroacetate] displayed an EC50 of 1 to 5 µM. In addition, the IC50 in experiment [2] lay in the range of 5 to 20 µM.
The molecule `Cc1cc(Cn2c(N3CCNCC3)nc3ccc(OC(C)C(F)(F)F)nc32)ccc1F` (centres unmarked) [Example 258, 3-(4-fluoro-3-methylbenzyl)-2-(piperazin-1-yl)-5-((1,1,1-trifluoropropan-2-yl)oxy)-3H-imidazo[4,5-b]pyridine] displayed an EC50 in experiment [1] of 5 to 30 µM. The IC50 in experiment [2] (setting [3]) is 1 to 5 µM.
In experiment [1], `Cc1cc(Cn2c(N3CCCC(N)C3)nc3ccc(OC(C)C(F)(F)F)nc32)ccc1F` (centres unmarked) [Example 261, 1-(3-(4-fluoro-3-methylbenzyl)-5-((1,1,1-trifluoroprpan-2-yl)oxy)-3H-imidazo[4,5-b]pyridin-2-yl)piperidin-3-amine] showed an EC50 of 30 to 100 µM. For the same molecule, in experiment [2] (setting [3]), the IC50 is < 1 µM.
On the same counts, the results for `CC(C)c1ccccc1-c1cccc2c1nc(N1CCNCC1)n2Cc1ccc(C(F)(F)F)cc1` [Example 95, 4-(2-isopropylphenyl)-2-(piperazin-1-yl)-1-(4-(trifluoromethyl)benzyl)-1H-benzo[d]imidazole] are 1 to 5 µM and < 1 µM.
Turning to `CCNCc1c(C)c(C)cc2c1nc(N1CCNCC1)n2Cc1cc(C)c(F)c(C)c1` [Example 131, N-((1-(4-fluoro-3,5-dimethylbenzyl)-5,6-dimethyl-2-(piperazin-1-yl)-1H-benzo[d]imidazol-4-yl)methyl)ethanamine trifluoroacetate], in experiment [1], the EC50 is 1 to 5 µM. In addition, in experiment [2], the IC50 was < 1 µM.
On the same counts, the results for `Cc1cc2c(nc(N3CCNCC3)n2Cc2cc(C)c(F)c(C)c2)c(CO)c1C` [Example 138, (1-(4-fluoro-3,5-dimethylbenzyl)-5,6-dimethyl-2-(piperazin-1-yl)-1H-benzo[d]imidazol-4-yl)methanol trifluoroacetate] are 1 to 5 µM and 5 to 20 µM.
Regarding `CC[C@H](N)c1cc(Cl)cc2c1nc(N1CCNCC1)n2Cc1cc(C)c(F)c(C)c1` [Example 157, (S)-1-(6-chloro-1-(4-fluoro-3,5-dimethylbenzyl)-2-(piperazin-1-yl)-1H-benzo[d]imidazol-4-yl)propan-1-amine trifluoroacetate], the EC50 in experiment [1] was < 1 µM. Besides, the IC50 in experiment [2] was in the range of 1 to 5 µM.
On the same counts, the results for `Cc1cc(Cn2c(N3CCNCC3)nc3c(C4NCCc5c4[nH]c4ccccc54)cc(Cl)cc32)cc(C)c1F` (centres unmarked) [Example 140, 1-(6-chloro-1-(4-fluoro-3,5-dimethylbenzyl)-2-(piperazin-1-yl)-1H-benzo[d]imidazol-4-yl)-2,3,4,9-tetrahydro-1H-pyrido[3,4-b]indole trifluoroacetate] are 1 to 5 µM and 1 to 5 µM.
Regarding `Cc1cc(Cn2c(NCC3CNC3)nc3ccc(OCCN(C)C)nc32)ccc1F` [Example 263, N-(azetidin-3-ylmethyl)-5-(2-(dimethylamino)ethoxy)-3-(4-fluoro-3-methylbenzyl)-3H-imidazo[4,5-b]pyridin-2-amine], the EC50 in experiment [1] lay within 30 to 100 µM. Also, the IC50 in experiment [2] (setting [3]) lay within 5 to 20 µM.
For `CC[C@H](N)c1cc(Cl)cc2c1nc(NCCN)n2Cc1cc(C)c(F)c(C)c1` [Example 158, (S)—N^1-(4-(1-aminopropyl)-6-chloro-1-(4-fluoro-3,5-dimethylbenzyl)-1H-benzo[d]imidazol-2-yl)ethane-1,2-diamine trifluoroacetate], the EC50 in experiment [1] is 1 to 5 µM. Moreover, the IC50 in experiment [2] lay in the range of 5 to 20 µM.
Consider `Cc1cc(CNCC(C)C)c2nc(N3CCNCC3)n(Cc3cc(C)c(F)c(C)c3)c2c1` [Example 133, N-((1-(4-fluoro-3,5-dimethylbenzyl)-6-methyl-2-(piperazin-1-yl)-1H-benzo[d]imidazol-4-yl)methyl)-2-methylpropan-1-amine trifluoroacetate], for which the EC50 in experiment [1] lay in the range of 1 to 5 µM. Further, the IC50 in experiment [2] fell in the range of 1 to 5 µM.
With `Fc1ccc(Cn2c(N3CCNCC3)nc3c(-c4ccc(C(F)(F)F)cc4)cccc32)cc1Cl` [Example 87, 1-(3-chloro-4-fluorobenzyl)-2-(piperazin-1-yl)-4-(4-(trifluoromethyl)phenyl)-1H-benzo[d]imidazole], the half-maximal effective concentration (EC50) in experiment [1] is 5 to 30 µM. In addition, the IC50 in experiment [2] (setting [3]) lay in the range of 5 to 20 µM.
In turn, `Nc1ccc(-c2cccc3c2nc(N2CCNCC2)n3Cc2ccc(C(F)(F)F)cc2)cc1` [Example 92, 4-(2-(piperazin-1-yl)-1-(4-(trifluoromethyl)benzyl)-1H-benzo[d]imidazol-4-yl)aniline] showed a concentration for a half-maximal effect (EC50) in experiment [1] of 1 to 5 µM. Besides, the IC50 in experiment [2] (setting [3]) is 1 to 5 µM.
In the case of `Cn1nccc1-c1cccc2c1nc(N1CCNCC1)n2Cc1ccc(F)c(Cl)c1` [Example 86, 1-(3-chloro-4-fluorobenzyl)-4-(1-methyl-1H-pyrazol-5-yl)-2-(piperazin-1-yl)-1H-benzo[d]imidazole trifluoroacetate], the concentration giving a half-maximal response (EC50) in experiment [1] was in the range of 1 to 5 µM. In addition, in experiment [2], the IC50 is 5 to 20 µM.
Taken in the same sequence, the figures for `C=C[C@H](N)c1cc(Cl)cc2c1nc(N1CCNCC1)n2Cc1cc(C)c(F)c(C)c1` [Example 155, (S)-1-(6-chloro-1-(4-fluoro-3,5-dimethylbenzyl)-2-(piperazin-1-yl)-1H-benzo[d]imidazol-4-yl)prop-2-en-1-amine trifluoroacetate] were < 1 µM and < 1 µM.
On the same counts, the results for `Fc1ccc(Cn2c(N3CCNCC3)nc3c(-c4ccccc4Cl)cccc32)cc1Cl` [Example 84, 1-(3-chloro-4-fluorobenzyl)-4-(2-chlorophenyl)-2-(piperazin-1-yl)-1H-benzo[d]imidazole trifluoroacetate] are 1 to 5 µM and 1 to 5 µM.
